Residues, ends and D or L forms follow the SMILES beside them. *: point of attachment. Cbz = O=C(OCc1ccccc1)*; CH2F = FC*
Key:
G93A-SOD1 mice = conditions: other reported pharmacological treatments (literature); cited from earlier work
[1] = system: PI3K (Akt phosphorylation); test: Western blot for PI3K activation (Akt phosphorylation) in APP-CHO cells; format: cell-based, Chinese Hamster; conditions: 10 μM, 6 hr
Protocol: (§1) APP-CHO cells were treated with 10 μM metal-BTSC complexes for 6 hr and cell lysates examined for activation of PI3K and MAPK signal pathways.
(§2) APP-CHO cells were treated with 10 μM metal-BTSC complexes for 6 hr. Cells were extracted into Phosphosafe (Novagen) lysis buffer and proteins separated by gel-electrophoresis on 12% tris-glycine gels. Proteins were transferred to PVDF membranes and blocked with milk powder for 1 hr. Blots were then probed for total and phosphorylated forms of Akt, JNK and GSK3 using antibodies from Cell Signaling Technologies. After detection with secondary antisera (HRP-labelled), blots were analyzed for signals using chemiluminescence analysis on a GeneGnome image scanner. Activation of PI3K is shown by increased levels of phosphorylated Akt (p-Akt). Activated JNk is shown by increased p-JNK. Increased levels of deactivated GSK3 is shown by increased p-GSK3.

JNK = test: Western blot for JNK activation (p-JNK) in APP-CHO cells; format: cell-based, Chinese Hamster; conditions: 10 μM, 6 hr
Protocol: as §1, §2

GSK3 = test: Western blot for GSK3 phosphorylation and expression in APP-CHO cells; format: cell-based, Chinese Hamster; conditions: 10 μM, 6 hr
Protocol: as §1, §2

[2] = system: APP-transfected CHO cells; test: Cellular zinc uptake of Zn-BTSC complexes (ICP-MS), with or without Cu2+; format: cell-based, Chinese Hamster; conditions: 6 hr
Protocol: It was known that copper can transmetallate [Zn(BTSC)] complexes. Therefore, if [Zn(BTSC)] complexes were administered to the culture medium in the presence of exogenous Cu^2+, we would expect [Cu(BTSC)] complexes to form. To examine this, cells were exposed to 10 μM [Zn(ATSE)] or [Zn(ATSP)] with or without 5-50 μM Cu^2+ for 6 hr.
Supernatant was discarded and cell pellets frozen at −70° C. until metal levels were determined by inductively-coupled plasma mass spectrometry (ICP-MS) at the Department of Pathology, University of Melbourne. […] [Zn(ATSM)] and [Zn(ATSE)] induced 8.2±0.25 and 9.8±0.9-fold increases in cellular Zn levels respectively when compared to untreated controls (FIG. 2).
To examine this, cells were exposed to 10 μM [Zn(ATSE)] or [Zn(ATSP)] with or without 5-50 μM Cu^2+ for 6 hr. Co-treatment of cells with Cu and the Zn-BTSC complexes reduced the level of Zn uptake compared to Zn-BTSC alone (FIG. 5).

Aβ1-40 = test: Extracellular Aβ1-40 in conditioned medium of APP-CHO cells (ELISA); format: cell-based, Chinese Hamster; conditions: 6 hr; for effect on Aβ1-40 levels at lower dose: 1 μM
Protocol: […] treatment regimes were used namely a control, 1 μM, 5 μM, 10 μM, 25 μM and 50 μM (FIG. 3). APP-transfected CHO cells were treated with each of the doses of [Cu(GTSM)] for 6 hr in serum-free medium and conditioned medium was then collected and assayed for Aβ1-40 peptide by routine […].
Five treatment regimes were used namely a control, 1 ? M, 5 ? M, 10 ? M, 25 ? M and 50 ? M (FIG. 4). APP-transfected CHO cells were treated with each of the doses of [Zn(BTSC)] for 6 hr in serum-free medium and conditioned medium was then collected and assayed for Aβ1-40 peptide by routine Aβ ELISA.
Generation of APP-transfected Chinese Hamster Ovary (CHO) APP-CHO cells were generated by expressing the 695-amino acid APP cDNA in the pIRESpuro2 expression vector (Clontech, Mountain View, Calif., USA). Cells were transfected using Lipofectamine 2000 and cultured in RPMI-1640 media supplemented with 1 mM glutamine and 10% fetal bovine serum (all from Invitrogen, Mount Waverley, Victoria, Australia). Transfected cells were selected and maintained using 7.5 μg/ml puromycin (Sigma-Aldrich).
Treatment of cells with Complexes. APP-CHO cells were passaged at a ratio of 1:5 and grown in 6 well plates for 3 days before experiments. Compounds were prepared as a 10 mM stock solution in DMSO and added to serum-free RPMI medium supplemented with puromycin. Medium was briefly mixed by aspiration prior to addition to cells. Control cultures were treated with vehicle (DMSO) alone. Cultures were incubated for 6 hr and conditioned media taken for measurement of […] levels by ELISA.
Double antibody capture enzyme-linked immunosorbent assay (ELISA) for Aβ detection. Aβ levels were determined in culture medium using the 384 well Aβ1-40 ELISA protocol. 384 well plates were coated with monoclonal antibody (mAb) G2-10 in carbonate-bicarbonate coating buffer (pH 9.6) for Aβ1-40 detection. The plates were left to incubate overnight at 4° C. with rocking. The plates were then washed three times with PBST at RT with rocking and the solution discarded after each wash. Then 100 μL of 0.5% (w/v) hydrolyzed casein in PBS (pH 7.4) was added to each well and left to incubate for 2 hr at 37° C. to prevent non-specific binding. The plates were then washed three times with PBST at RT with rocking. 20 ng of biotinylated mAb WO2 (epitope at Aβ5-8) was added to each well of the plates (10 μL/well at […]). 50 μL/well of Aβ1-40 standard peptide samples (MHRI, Melbourne, Australia), cell culture medium samples and the blanks were added. The plates were left to incubate overnight at 4° C. with rocking. The plates were washed nine times with PBST at RT with rocking. 25 μL streptavidin-labelled europium was added at a dilution of 1:1000. Plates were then washed ten times with PBST where the 9th and 10th wash was left on for 5 min before discarding. To develop the plates 80 μL of enhancement solution was added to each well and plates were read in a WALLAC Victor^2 plate reader with excitation (Ex) at 340 nm and emission (Em) at 613 nm. Aβ1-40 peptide standards and samples were assayed in triplicate. The values obtained from the triplicate wells were used to calculate the […] concentration (expressed as ng/mL) based on the standard curve generated on each plate and are given in Table 3.
APP-CHO cells were treated with 10 μM [Zn(ATSE)] with or without specific inhibitors of PI3K (LY294002), JNK (SP600125) or p38 (SB203580) (25 μM of each) for 6 hr and conditioned medium analyzed for levels of Aβ1-40 by routine ELISA.

EGFR = EGFR phosphorylation (tyr1068) in U87MG-EGFR cells (Western blot); format: cell-based; conditions: added to CuGTSM-treated cells (25 μM CuGTSM)
Protocol: Transfected U87MG-EGFR cells were treated with 25 μM CuGTSM or DMSO as vehicle control for 5 hr and EGFR phosphorylation (tyr1068) determined by Western blot. Antisera to EGFRtyr1068 was routinely used as this is one of the critical tyrosine residues involved in EGFR activation and downstream signaling. It is also routinely reported in the literature on EGFR activation.

ERK, GSK3 and JNK = test: Downstream phosphorylation of ERK, GSK3 and JNK in U87MG-EGFR cells (Western blot); format: cell-based; conditions: 25 μM CuGTSM plus 10 μM PD153035; not completely ablated
Protocol: A study was carried out to determine if kinase pathways modulated by CuGTSM were mediated by activation of EGFR. This was done by treating U87MG-EGFR cells with 25 μM DMSO, CuGTSM, CuGTSM plus 10 μM PD153035 (EGFR inhibitor), or 10 μM PD153035 alone. The activation of ERK, GSK3 and JNK was then determined by Western blot.

Molecule: CO/N=C(\C(=O)N[C@@H]1C(=O)N2C(C(=O)O)=C(CSc3nc(=O)c(=O)[nH]n3C)CS[C@H]12)c1csc(N)n1 [Ceftriaxone]
- Increased Life Span (G93A-SOD1 mice): 10 days

Molecule: CN(CC(=O)O)C(=N)N [Creatine]
- Increased Life Span (G93A-SOD1 mice): 20 days

Molecule: Nc1nc2ccc(OC(F)(F)F)cc2s1 [Riluzole]
- Increased Life Span (G93A-SOD1 mice): 10 to 15 days

Molecule: CC1=[N+]2N=C(Nc3ccccc3)[S][Zn]23[S]C(Nc2ccccc2)=N[N+]3=C1C [[Zn(ATSP)]]
- activation of PI3K (Akt phosphorylation) [1]: did not induce activation
- activation of JNK (JNK): did not induce activation
- GSK3 expression (GSK3): small increase

Molecule: COC(=O)C[C@H](NC(=O)[C@H](C)NC(=O)[C@@H](NC(=O)OCc1ccccc1)C(C)C)C(=O)CF [zVAD-fink] (Cbz-Val-Ala-Asp(OMe)-CH2F)
- Increased Life Span (G93A-SOD1 mice): 27 days

Molecule: CCN1C=CN(CC)C1=C1C2=NC(=C(c3n(CC)cc[n+]3CC)C3=NC(=C(c4n(CC)cc[n+]4CC)c4ccc([n-]4)C(c4n(CC)cc[n+]4CC)=C4C=CC1=N4)C=C3)C=C2.[Cl-].[Cl-].[Cl-].[Cl-].[Cl-].[Mn+3] [AEOL 10150]
- Increased Life Span (G93A-SOD1 mice): 20 days

Molecule: CC(=N\NC([S-])=Nc1ccccc1)/C(C)=N/NC([S-])=Nc1ccccc1.[Cu+2] [CuATSP]
- activation of PI3K (Akt phosphorylation) [1]: did not induce activation
- activation of JNK (JNK): did not induce activation

Molecule: CCNC1=NN=C(C)C(C)=NN=C(NCC)[S][Zn][S]1 [[Zn(ATSE)]]
- fold increase in cellular zinc levels ([2]; 10 μM complex alone): 9.7±0.7 fold
- fold increase in intracellular zinc ([2]; 10 μM complex in the presence of 10 μM Cu2+): 2.9±0.3 fold
- fold increases in cellular Zinc levels ([2]; APP-CHO cells, 1-50 μM, vs untreated controls): 9.8±0.9 fold
- effect on Aβ1-40 levels at lower dose (Aβ1-40): greater reductions
- effect on Aβ1-40 levels at lower dose (Aβ1-40; listed as Zn-ATSE): inhibited
- activation of PI3K (Akt phosphorylation) [1]: induced activated
- activation of JNK (JNK): induced activated
- GSK3 expression (GSK3): increased
- phosphorylation (de-activation) of GSK3 (GSK3): induced down-stream phosphorylation

Molecule: CNC(=S)NN=CC=NNC(=S)NC [GTSMH2]
- effect on extracellular Aβ1-40 levels (Aβ1-40; 1-50 μM, serum-free medium): very small reduction

Molecule: C[S+]([O-])c1ccc(-c2nc(-c3ccncc3)c(-c3ccc(F)cc3)[nH]2)cc1 (stereo not shown) [SB203580, reference compound]
- effect of kinase inhibitor on the loss of Aβ by [Zn(ATSE)] (Aβ1-40; 25 μM inhibitor with 10 μM [Zn(ATSE)]): no effect

Molecule: CCNC1=N[N+]2=C(C)C(C)=[N+]3N=C(NCC)[S][Cu-2]23[S]1 [CuATSE]
- activation of PI3K (Akt phosphorylation) [1]: did not induce activation
- activation of JNK (JNK): did not induce activation

Molecule: COc1cc2ncnc(Nc3cccc(Br)c3)c2cc1OC [PD153035]
- effect on CuGTSM-induced activation of EGFR (EGFR): inhibited activation
- CuGTSM-induced phosphorylation of JNK, GSK3 and ERK (ERK, GSK3 and JNK): decrease

Molecule: CCNC1=NN=C2CCCCC2=NN=C(NCC)[S][Zn][S]1 [[Zn(ChexTSE)]]
- effect on Aβ1-40 levels at lower dose (Aβ1-40): greater reductions
- effect on Aβ1-40 levels at lower dose (Aβ1-40; listed as Zn-Chex TSE): inhibited

Molecule: Vitamin E
- Increased Life Span (G93A-SOD1 mice): No effect
